Where two headings read alike, the source gives them in different places. Numbered stars: 1 amine (or outer) side, 2 acyl side, 3 side chain; on linkers, the order of the positions; unused ones are H or OH. Square brackets hold non-standard residues; d marks the D form. Peptide text beside a SMILES is read from it. * marks the point of attachment. X13 = CCCCCCCCCC(=O)Nc1ccc2c(c1)CN([*:1])[C@H](C(=O)[*:2])C2; Phenylacetic(2-CH2NH2) = O=C(Cc1ccccc1CN[*:1])[*:2]; 2(aminomethyl)benzoyl = O=C(c1ccccc1CN[*:1])[*:2]; X6 = CCCCCCCCCC(=O)NCCCNC(=O)c1ccc(C(=O)*)c(CN)c1; X2 = O=C([C@@H]1Cc2ccccc2N1[*:1])[*:2]; X9 = NCCS(=O)(=O)c1ccc(C(=O)*)c(CN)c1; Tiq1c(1S) = O=C(O)[C@H]1NCCc2ccccc21; X11 = NCCCNC(=O)c1ccc(C(=O)*)c(CN)c1; Tic = O=C(O)[C@@H]1Cc2ccccc2CN1; dTic = O=C(O)[C@H]1Cc2ccccc2CN1; X12 = Cc1cc(N)cc(C(=O)*)c1CN; X5 = Cc1cc(CN)cc(CN)c1C(=O)*; Decanoyl = CCCCCCCCCC(=O)*; X1 = O=C(O)Cc1ccccc1C(=O)*; X4 = NCc1ncccc1C(=O)*; X7 = NCc1cccnc1C(=O)*
Assay: Determination of half life in PBS: cleavage of promoieties from capped model peptides
Type: physicochemical
Protocol: Determination Of half Life in PBS
Polypeptides GIVEQAA-NH2 (SEQ ID NO: 57) and […] (SEQ ID NO: 58), two mimics of the N-terminus section of insulin A chain, were used as model peptides to determine the half lives of various promoieties linked to the N-terminus of the peptides through an amide bond. The model peptides were prepared with Fmoc chemistry, cleaved by TFA and purified by preparative RP-HPLC.
The promoiety capped model peptide was dissolved at 1 mg/mL concentration in PBS and the solution was incubated at 37° C. in a water bath. Samples were collected for analysis at different time points (e.g., 8 h, 16 h, 24 h, 48 h, 72 h, 96 h, 120 h). […] The promoiety cleavage was quenched by lowering pH to 2 by addition of 0.1% TFA solution. RP-HPLC was used to monitor the cleavage reactions and the cleavage rates were quantitatively studied by measuring the peak areas of the promoiety capped and released model peptides. Agilent 6110 Quadrupole LC-MS was employed to verify the change of mass in the course of reaction.
The RP-HPLC analysis was performed using a Shimadzu LC-2010A HT system and a 150 mm×4.6 mm Zorbax 300SB-C18 column. The flow rate was 1 ml/min. Solvent A contained 0.1% TFA/5% CH3CN in deionized water, and solvent B contained 0.1% TFA in 100% CH3CN. A linear gradient was employed (e.g., 10-70% B in 10 minutes).
The rate of cleavage was determined for the respective promoiety capped model peptides. The concentrations of the promoiety capped model peptides and the released model peptides were determined by their respective peak areas. The first order dissociation rate constant of a promoiety capped model peptide was determined by plotting the logarithm of [starting promoiety capped model peptide]/[remaining promoiety capped model peptide] at various time intervals. The half life for cleavage of a promoiety capped model peptide was calculated by using the equation and the slope derived from this plot.
The cleavage half lives of various promoieties linked to the model peptides were determined using the procedures described above.

[1] = PBS, 37° C., 1 mg/mL, RP-HPLC, read-out: t 1/2 (h), cleavage of promoiety linked to N terminus of model peptide X-[…] (converted)
[2] = PBS, 37° C., 1 mg/mL, RP-HPLC, read-out: t 1/2 (h), cleavage of promoiety linked to N terminus of model peptide X-GIVEQAA (converted)

Compound | half-life at 1 mg/mL [1] | also measured
CC[C@H](C)[C@H](NC(=O)CNC(=O)c1ccccc1CC(=O)O)C(=O)N[C@H](C(=O)N[C@@H](CCC(=O)O)C(=O)N[C@@H](CCC(N)=O)C(=O)N[C@@H](C)C(=O)N[C@@H](C)C(=O)N[C@@H](Cc1ccc(O)cc1)C(=O)O)C(C)C [drawing 171] (X1-GIVEQAAY-OH; C-terminus assumed) |  | half-life at 1 mg/mL (PBS (phosphate-buffered saline), pH 4, read-out: t 1/2 (h), cleavage of promoiety linked to N terminus of model peptide X-[…] (converted)): 6.2 h
CCCCCCCCCC(=O)NCCCC[C@H](N)C(=O)N1c2ccccc2C[C@H]1C(=O)NCC(=O)N[C@H](C(=O)N[C@H](C(=O)N[C@@H](CCC(=O)O)C(=O)N[C@@H](CCC(N)=O)C(=O)N[C@@H](C)C(=O)N[C@@H](C)C(=O)N[C@@H](Cc1ccc(O)cc1)C(=O)O)C(C)C)[C@@H](C)CC [NH2-K(C10)-Indo2CA] (H-K(Decanoyl)[X2]GIVEQAAY-OH; C-terminus assumed) | 6 h | 
CC[C@H](C)[C@H](NC(=O)CNC(=O)c1ccccc1CC(=O)O)C(=O)N[C@H](C(=O)N[C@@H](CCC(=O)O)C(=O)N[C@@H](CCC(N)=O)C(=O)N[C@@H](C)C(=O)N[C@@H](C)C(=O)N[C@@H](Cc1ccc(O)cc1)C(=O)O)C(C)C [drawing 173] (X1-GIVEQAAY-OH; C-terminus assumed) | 183 h | 
CC[C@H](C)[C@H](NC(=O)CNC(=O)c1ccccc1CN)C(=O)N[C@H](C(=O)N[C@@H](CCC(=O)O)C(=O)N[C@@H](CCC(N)=O)C(=O)N[C@@H](C)C(=O)N[C@@H](C)C(=O)N[C@@H](Cc1ccc(O)cc1)C(=O)O)C(C)C ({2(aminomethyl)benzoyl}-GIVEQAAY-OH; C-terminus assumed) | 1030 h | 
N[C@@H](CO)c1nncn1[C@@H](CCCCNC(=O)OCC1c2ccccc2-c2ccccc21)C(=O)O | 193 h | 
CC[C@H](C)[C@H](NC(=O)CNC(=O)[C@@H]1Cc2ccccc2CN1C(=O)[C@H](C)N)C(=O)N[C@H](C(=O)N[C@@H](CCC(=O)O)C(=O)N[C@@H](CCC(N)=O)C(=O)N[C@@H](C)C(=O)N[C@@H](C)C(=O)N[C@@H](Cc1ccc(O)cc1)C(=O)O)C(C)C [NH2-Ala-Tic] (H-A[Tic]GIVEQAAY-OH; C-terminus assumed) | 58.9 h | 
CC[C@H](C)[C@H](NC(=O)CNC(=O)[C@@H]1Cc2ccccc2N1C(=O)[C@@H](N)C(C)C)C(=O)N[C@H](C(=O)N[C@@H](CCC(=O)O)C(=O)N[C@@H](CCC(N)=O)C(=O)N[C@@H](C)C(=O)N[C@@H](C)C(=O)N[C@@H](Cc1ccc(O)cc1)C(=O)O)C(C)C [NH2-Val-Indo2CA] (H-V[X2]GIVEQAAY-OH; C-terminus assumed) | 13 h | 
CC[C@H](C)[C@H](NC(=O)CNC(=O)c1cccnc1CN)C(=O)N[C@H](C(=O)N[C@@H](CCC(=O)O)C(=O)N[C@@H](CCC(N)=O)C(=O)N[C@@H](C)C(=O)N[C@@H](C)C(=O)N[C@@H](Cc1ccc(O)cc1)C(=O)O)C(C)C (X4-GIVEQAAY-OH; C-terminus assumed) | 458 h | 
CCCCCCCCCC(=O)Nc1ccc2c(c1)CN(C(=O)[C@H](C)N)[C@H](C(=O)NCC(=O)N[C@H](C(=O)N[C@H](C(=O)N[C@@H](CCC(=O)O)C(=O)N[C@@H](CCC(N)=O)C(=O)N[C@@H](C)C(=O)N[C@@H](C)C(=O)O)C(C)C)[C@@H](C)CC)C2 (H-A[X13]GIVEQAA-OH) |  | half-life at 1 mg/mL [2]: 38.9 h
CC[C@H](C)[C@H](NC(=O)CNC(=O)Cc1ccccc1CN)C(=O)N[C@H](C(=O)N[C@@H](CCC(=O)O)C(=O)N[C@@H](CCC(N)=O)C(=O)N[C@@H](C)C(=O)N[C@@H](C)C(=O)N[C@@H](Cc1ccc(O)cc1)C(=O)O)C(C)C ({Phenylacetic(2-CH2NH2)}-GIVEQAAY-OH; C-terminus assumed) | 482 h | 
CC[C@H](C)[C@H](NC(=O)CNC(=O)c1ccc(C(=O)NCCCN)cc1CN)C(=O)N[C@H](C(=O)N[C@@H](CCC(=O)O)C(=O)N[C@@H](CCC(N)=O)C(=O)N[C@@H](C)C(=O)N[C@@H](C)C(=O)N[C@@H](Cc1ccc(O)cc1)C(=O)O)C(C)C (X11-GIVEQAAY-OH) | 112 h | 
CCCCCCCCCC(=O)NCCCC[C@H](N)C(=O)N1Cc2ccccc2C[C@H]1C(=O)NCC(=O)N[C@H](C(=O)N[C@H](C(=O)N[C@@H](CCC(=O)O)C(=O)N[C@@H](CCC(N)=O)C(=O)N[C@@H](C)C(=O)N[C@@H](C)C(=O)N[C@@H](Cc1ccc(O)cc1)C(=O)O)C(C)C)[C@@H](C)CC [NH2-K(C10)-Tic] (H-K(Decanoyl)[Tic]GIVEQAAY-OH; C-terminus assumed) | 46.9 h | 
SEQ ID NO: 60 (GIVEQAAY; N-term may be promoiety modified) |  | t 1/2 (h), cleavage of promoiety linked to N terminus of model peptide X-GIVEQAAY (PBS, 37° C., 1 mg/mL, RP-HPLC): 72.6 h
N[C@@H](CCCCNC(=O)OCC1c2ccccc2-c2ccccc21)c1nncn1[C@@H](CO)C(=O)O | 79.7 h | 
CC[C@H](C)[C@H](NC(=O)CNC(=O)c1ccc(S(=O)(=O)CCN)cc1CN)C(=O)N[C@H](C(=O)N[C@@H](CCC(=O)O)C(=O)N[C@@H](CCC(N)=O)C(=O)N[C@@H](C)C(=O)N[C@@H](C)C(=O)O)C(C)C (X9-GIVEQAA-OH) |  | half-life at 1 mg/mL [2]: 28.1 h
CCCCCCCCCC(=O)NCCCC[C@@H](N)C(=O)N1Cc2ccccc2C[C@@H]1C(=O)NCC(=O)N[C@H](C(=O)N[C@H](C(=O)N[C@@H](CCC(=O)O)C(=O)N[C@@H](CCC(N)=O)C(=O)N[C@@H](C)C(=O)N[C@@H](C)C(=O)N[C@@H](Cc1ccc(O)cc1)C(=O)O)C(C)C)[C@@H](C)CC [NH2-dK(C10)-dTic] (H-[dK](Decanoyl)[dTic]GIVEQAAY-OH; C-terminus assumed) | 50.6 h | 
CCCCCCCCCC(=O)NCCCC[C@H](N)C(=O)N1CCc2ccccc2[C@H]1C(=O)NCC(=O)N[C@H](C(=O)N[C@H](C(=O)N[C@@H](CCC(=O)O)C(=O)N[C@@H](CCC(N)=O)C(=O)N[C@@H](C)C(=O)N[C@@H](C)C(=O)N[C@@H](Cc1ccc(O)cc1)C(=O)O)C(C)C)[C@@H](C)CC (H-K(Decanoyl)[Tiq1c(1S)]GIVEQAAY-OH) | 262 h | 
CC[C@H](C)[C@H](NC(=O)CNC(=O)c1ncccc1CN)C(=O)N[C@H](C(=O)N[C@@H](CCC(=O)O)C(=O)N[C@@H](CCC(N)=O)C(=O)N[C@@H](C)C(=O)N[C@@H](C)C(=O)N[C@@H](Cc1ccc(O)cc1)C(=O)O)C(C)C (X7-GIVEQAAY-OH; C-terminus assumed) | 597 h | 
CC[C@H](C)[C@H](NC(=O)CNC(=O)c1c(C)cc(CN)cc1CN)C(=O)N[C@H](C(=O)N[C@@H](CCC(=O)O)C(=O)N[C@@H](CCC(N)=O)C(=O)N[C@@H](C)C(=O)N[C@@H](C)C(=O)O)C(C)C (X5-GIVEQAA-OH; N-terminus and C-terminus assumed) |  | half-life at 1 mg/mL [2]: 300 h
CCCCCCCCCC(=O)NCCCNC(=O)c1ccc(C(=O)NCC(=O)N[C@H](C(=O)N[C@H](C(=O)N[C@@H](CCC(=O)O)C(=O)N[C@@H](CCC(N)=O)C(=O)N[C@@H](C)C(=O)N[C@@H](C)C(=O)N[C@@H](Cc2ccc(O)cc2)C(=O)O)C(C)C)[C@@H](C)CC)c(CN)c1 (X6-GIVEQAAY-OH) | 181 h | 
CC[C@H](C)[C@H](NC(=O)CNC(=O)c1cc(N)cc(C)c1CN)C(=O)N[C@H](C(=O)N[C@@H](CCC(=O)O)C(=O)N[C@@H](CCC(N)=O)C(=O)N[C@@H](C)C(=O)N[C@@H](C)C(=O)O)C(C)C (X12-GIVEQAA-OH; N-terminus and C-terminus assumed) |  | half-life at 1 mg/mL [2]: 85 h
Cc1cc(C(=O)O)cc(CN)c1C(=O)NCCc1ccc(N)cc1 |  | half-life at 1 mg/mL (compound drawn, stated after the PBS tables, read-out: Half life for cleavage (converted)): 779 h
CC[C@H](C)[C@H](NC(=O)CNC(=O)[C@@H]1Cc2ccccc2N1C(=O)[C@@H](N)Cc1ccccc1)C(=O)N[C@H](C(=O)N[C@@H](CCC(=O)O)C(=O)N[C@@H](CCC(N)=O)C(=O)N[C@@H](C)C(=O)N[C@@H](C)C(=O)N[C@@H](Cc1ccc(O)cc1)C(=O)O)C(C)C [NH2-Phe-Indo2CA] (H-F[X2]GIVEQAAY-OH; C-terminus assumed) | 9.7 h | 
CC[C@H](C)[C@H](NC(=O)CNC(=O)[C@@H]1Cc2ccccc2N1C(=O)[C@H](C)N)C(=O)N[C@H](C(=O)N[C@@H](CCC(=O)O)C(=O)N[C@@H](CCC(N)=O)C(=O)N[C@@H](C)C(=O)N[C@@H](C)C(=O)N[C@@H](Cc1ccc(O)cc1)C(=O)O)C(C)C [NH2-Ala-Indo2CA] (H-A[X2]GIVEQAAY-OH; C-terminus assumed) | 3.4 h | 

From patent US20200291086A1, “BIOREVERSABLE PROMOIETIES FOR NITROGEN-CONTAINING AND HYDROXYL-CONTAINING DRUGS” (priority 2013, published 2020)
